Results taken from patent publication US20260337153A1, “IONIZABLE AMINE LIPIDS” (Intellia Therapeutics, Inc., priority 2023, published 2026).

Legend:
rat TTR gene = experiment: In vivo editing of TTR in rat liver after LNP delivery (NGS, % editing); design: species or system rat (Sprague-Dawley); details: LNP with PEG2K-DMG
Method in brief: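 Four-component LNPs (ionizable amine lipid, DSPC, cholesterol, PEG lipid) carried Cas9 mRNA and a chemically modified sgRNA against rat TTR, made by impinging jet mixing at an N:P near 6. They were injected into the lateral tail vein of female Sprague-Dawley rats. Liver genomic DNA collected at 6 or 7 days was amplicon-sequenced on Illumina MiSeq to calculate percent indels.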

rat TTR = experiment: Serum TTR level after LNP delivery (Rat Prealbumin (Transthyretin) ELISA); assay type: in vivo, rat (Sprague-Dawley); details: LNP with PEG2K-DMG
Experimental: Sprague-Dawley female rats, ranging from 6-10 weeks of age were used in each study. Animals were weighed and dosed based on individual body weight measured the morning of dosing. LNPs were dosed via the lateral tail vein in a volume of 2 mL per kilogram of animal body weight. The animals were periodically observed for adverse effects for at least 24 hours post dose.
For studies measuring in vivo editing in liver, Sprague-Dawley female rats were dosed at 0.1 mpk or 0.03 mpk, unless otherwise noted. Animals were euthanized at 6 or 7 days by carbon dioxide asphyxiation and a heart clip or by ex sanguination via cardiac puncture under isoflourane anesthesia. Blood was collected into serum separator tubes. Liver tissue was collected. Genomic DNA was isolated from the liver tissue for editing measurement by Next-Generation Sequencing (NGS).
Blood was collected and the serum was isolated as indicated. The total rat TTR serum levels were determined using a Rat Prealbumin (Transthyretin) ELISA Kit (Aviva Systems Biology, Cat. #OKIA00159). Briefly, sera were serial diluted with kit sample diluent to a final dilution of 10,000-fold. This diluted sample was then added to the ELISA plates and the assay was then carried out according to manufacturer's protocol.
In vivo editing efficiency for materials delivered with formulations including various amine lipid (or ionizable lipid) compounds in Experiments 1 through 14 as described in Tables 3 and 4 was assessed. Editing was measured using G000534 (SEQ ID NO: 5) which targets the rat TTR gene. Lipids described above were assessed for efficacy through in vivo editing experiments. LNPs were formulated at a 1:2 w/w ratio of sgRNA (SEQ ID NO: 5) and Cas9 mRNA (SEQ ID NO: 3). In Experiments 1 through 13, lipid components of the LNP are formulated in a molar ratio of 50% ionizable lipid, 38% cholesterol, 9% DSPC, and 3% PEG2K-DMG. In Experiment 14, lipid components of the LNP are formulated in a molar ratio of 50% ionizable lipid, 38% cholesterol, 9% DSPC, and 3% C13 Ether. The final LNPs used in different in vivo editing experiments were characterized to determine the encapsulation efficiency (% E), polydispersity index (PDI), and average particle size (Z-avg and number mean) according to the analytical methods provided above. The pKa values of each of the following ionizable lipids were also measured to be in the range of about 5.8 to about 7.6.
TSS was used as a vehicle-only negative control. The data are illustrated in FIGS. 1A through 14.

Compound	Mean % editing (rat TTR gene; Experiment 2, 0.1 mpk) [%]	% TSS (serum TTR relative to vehicle) (rat TTR; Experiment 2, 0.1 mpk) [%]	Serum TTR (rat TTR; Experiment 2, 0.1 mpk) [µg/mL]	Mean % editing (rat TTR gene; Experiment 5, 0.1 mpk) [%]	% TSS (serum TTR relative to vehicle) (rat TTR; Experiment 5, 0.1 mpk) [%]	Serum TTR (rat TTR; Experiment 5, 0.1 mpk) [µg/mL]
CCCCCCCCC(CCCCCCCC)OC(=O)CCCCCC(=O)OCC(COC(=O)CCCCCC(=O)OC(CCCCCCCC)CCCCCCCC)COC(=O)OCCCN(CC)CC [Compound 3, O′1,O1-(2-((((3-(diethylamino)propoxy)carbonyl)oxy)methyl)propane-1,3-diyl) 7,7′-di(heptadecan-9-yl) di(heptanedioate)]	53.0	30	414.5	–	–	–
CCCCC/C=C\C/C=C\CCCCCCCC(=O)OCC(CCCCCCCCC(=O)OC(CCCCCCCC)CCCCCCCCC)COC(=O)CCC(CCCCCCCC)OC(=O)NCCN(C)CC (stereo not drawn) [Compound 24, 3-methyl-15-(9-(octadecan-9-yloxy)-9-oxononyl)-9-octyl-7,12-dioxo-8,13-dioxa-3,6-diazahexadecan-16-yl (9Z,12Z)-octadeca-9,12-dienoate]	–	–	–	3.6	95	1352.4
